The results in this text go back to EPA's ToxValDB 9.5 (doi:10.2903/j.efsa.2016.4432).

One data set has as its system Typhlodromus pyri. In words: LR50; higher = less toxic. To be noted: not reported; mortality.
The test system of another data set is Anas platyrhynchos. To be noted: short-term; oral; feed; mortality.
The next data set concerns Folsomia candida. To be noted: chronic/long-term; mortality.
The test system of a further data set is Oryctolagus sp. To be noted: developmental; development.
A further data set deals with Tagia sp. To be noted: chronic/long-term; growth.
The subject of a further data set is Mus musculus. Particulars: acute; mortality.
Another data set relates to Apis mellifera. To be noted: acute, mortality.
A further data set concerns Rattus norvegicus. To be noted: acute; oral; mortality.
Another data set has as its system Daphnia magna. Particulars: chronic/long-term; duration: 21 days; mortality.

In general, NOAEL refers to the highest dose or exposure tested at which no adverse effect was seen. Usually LC50 stands for the concentration lethal to half of the exposed cells or organisms.

Bounds are passed on as bounds.

Turning to `COCc1cnc(C2=NC(C)(C(C)C)C(=O)N2)c(C(=O)O)c1` (centres undefined) [Imazamox], the LR50 in the data set on Typhlodromus pyri is 1340 mL/ha. Moreover, the LD50 is 3490 mg/kg-day with Colinus virginianus (acute, oral, mortality); over 1930 mg/kg-day with Anas platyrhynchos; over 5000 mg/kg-day in the data set on Mus musculus; over 58 µg/piece in the data set with Apis mellifera (dermal); over 40 µg/piece in the data set on Apis mellifera (oral, unspecified); over 5000 mg/kg-day with Rattus norvegicus. For the same compound, the values for the no observed adverse effect level (NOAEL) with Colinus virginianus (reproduction developmental) and in the data set with Oryctolagus sp. were 209 mg/kg-day and 300 mg/kg-day, respectively. Also, the NOEC in the data set with Folsomia candida was found to be 3.36 mg/kg; with Tagia sp. it was 5.85 mg/kg; with Daphnia magna, 137 mg/L; with Cyprinodon variegatus (chronic/long-term, duration: 35 days, other), 1.22 mg/L. This compound also yielded a median lethal concentration (LC50) in the data set with Cyprinodon variegatus (acute, duration: 96 hours, mortality) of over 97 mg/L.
